Measured values taken from US10633397B2, “Substituted polycyclic pyridone derivatives and prodrugs thereof” (priority 2015, dated 2020).
In brackets after ≈: the same amount, converted by molar mass. Like-named read-outs stand apart in the source and are kept apart here.

Key:
in vivo [1] = settings: rat, SD rats, intravenous administration
Description: Test Example 13: Intravenous Administration Test
Examined experimental materials and method of intravenous administration test
(1) Animals used: SD rats were used.
(2) Rearing conditions: Pellets and sterilized tap water were fed to SD rats ad libitum.
(3) Dosage and grouping: A predetermined dosage was intravenously administered. Groups were set as follows. (Dosage varied for each compound)
Intravenous administration 0.5-1 mg/kg (n=2-3)
(4) Preparation of administration solution: Intravenous administration was performed after solubilization.
(5) Administration method: Intravenous administration was performed with a needle-equipped syringe on the caudal vein.
(6) End point: Blood was collected over time, and the plasma concentration of the compound of the present invention was measured using LC/MS/MS.
(7) Statistical analysis: As for the transition of the plasma concentration of the compound of the present invention, the total body clearance (CLtot) and the elimination half-life (t1/2, z) were calculated using nonlinear least-squares program WinNonlin®.

in vivo [2] = settings: oral vs intravenous administration, mice or SD rats, read-out: bioavailability (BA)
Description: Materials and Methods for Experiments to Evaluate Oral Absorption
(1) Experimental animals: mice or SD rats were used.
(2) Rearing condition: mice or SD rats were allowed free access to solid feed and sterilized tap water.
(3) Setting of dosage and grouping: Oral administration and intravenous administration were performed with the predetermined dosage. Grouping was set as below. (Dosage was changed per compound)
Oral administration 1 to 30 mg/kg (n=2 to 3)
Intravenous administration 0.5 to 10 mg/kg (n=2 to 3)
(4) Preparation of administration solutions: Oral administration was performed as solution or suspension. Intravenous administration was performed after solubilization.
(5) Routes of administration: Oral administration was performed mandatory into the stomach by oral sonde. […]
(6) Evaluation items: Blood was collected serially and concentration of a compound of the present invention in plasma was measured by LC/MS/MS.
(7) Statistical analysis: About transition of concentration of a compound of the present invention in plasma, the area under the plasma concentration versus time curve (AUC) was calculated by non-linear least-squares method program, WinNonlin (a registered trademark), and bioavailability (BA) of a compound of the present invention was calculated from AUCs of the oral administration group and the intravenous administration group. […]

physchem [3] = type: physicochemical; settings: kinetic from dmso stock; 1% DMSO addition conditions; JP-1 or JP-2 solution not stated in result
Description: Test Example 9: Solubility Test
A 10 mmol/L solution of the compound was prepared with DMSO, and 2 μL of the solution of the compound of the present invention was added, respectively, to 198 μL of JP-1 solution (water were added to 2.0 g of sodium chloride and 7.0 mL of hydrochloric acid to reach 1000 mL) and JP-2 solution (1 volume of water were added to 1 volume of the solution which 3.40 g of potassium dihydrogen phosphate and 3.55 g of anhydrous disodium hydrogen phosphate to reach 1000 mL). The mixture was shaked for 1 hour at a room temperature, and the mixture was filtered. The filtrate was ten-fold diluted with methanol/water=1/1(v/v), and the compound concentration in the filtrate was measured with LC/MS or SPE/MS by the absolute calibration method.

influenza virus = experiment: CPE inhibitory effect confirming assay; type: cell-based; settings: unidentified influenza virus, 72 h, read-out: CPE_EC50
physchem [4] = type: physicochemical; settings: thermodynamic from solid, 1 hour at 37° C.
Description: Test Example 10: Powder Solubility Test
Appropriate amounts of the compound of the present invention was put into vials and 200 μL of JP-1st Fluid (water was added to 2.0 g of sodium chloride in 7.0 mL of hydrochloride acid to reach 1000 mL), JP-2nd Fluid (water was added to 500 mL of phosphate buffer solution with a pH of 6.8) and 20 mmol/L sodium taurocholate (TCA)/JP-2nd Fluid (JP-2nd Fluid was added to 1.08 g of TCA in JP-2nd Fluid to reach 100 mL) was added to each vial. When the compound was completely dissolved, appropriate amount of compound was added. After shaken for 1 hour at 37° C., the mixture was filtered and 100 μL of methanol was added to 100 μL of each filtrate (double dilution). Dilution magnification was changed if necessary. After it was confirmed whether there were air bubbles and precipitates in the vials, the vials were shaken with tight stopper. The compound concentration was determined with HPLC by the absolute calibration method.

[5] = Metabolism stability test; type: in vitro ADME; settings: human liver microsomes, 30 minutes, 37° C., 2 μmol/L of test compound
Description: Test Example 5: Metabolism Stability Test
Using commercially available pooled human hepatic microsomes, a compound of the present invention was reacted for a constant time, and a remaining rate was calculated by comparing a reacted sample and an unreacted sample, thereby, a degree of metabolism in liver was assessed.
A reaction was performed (oxidative reaction) at 37° C. for 0 minute or 30 minutes in the presence of 1 mmol/L NADPII in 0.2 mL of a buffer (50 mmol/L Tris-HCl pH 7.4, 150 mmol/L potassium chloride, 10 mmol/L magnesium chloride) containing 0.5 mg protein/mL of human liver microsomes. After the reaction, 50 μL of the reaction solution was added to 100 μL of a methanol/acetonitrile=1/1 (v/v), mixed and centrifuged at 3000 rpm for 15 minutes. The compound of the present invention in the supernatant was quantified by LC/MS/MS or Solid Phase Extraction (SPE)/MS, and a remaining amount of the compound of the present invention after the reaction was calculated, letting a compound amount at 0 minute reaction time to be 100%. Hydrolysis reaction was performed in the absence of NADPII and glucuronidation reaction was in the presence of 5 mM UDP-glucuronic acid in place of NADPH, followed by similar operations.

Compound O=C1c2c(O)c(=O)ccn2N([C@@H]2c3ccccc3SCc3c2ccc(F)c3F)[C@@H]2COCCN12 [III-2] has a half-life (in vivo [1]; read-out: elimination half-life (t1/2, z) (converted)) of 3.4 h, a clearance (in vivo [1]; read-out: total body clearance (CLtot)) of 16.4 mL/min/kg and a bioavailability (in vivo [2]) of 4.2%. For the same compound, the solubility (physchem [3]) was 42.2 µM (≈ 20.4 µg/mL), the EC50 (influenza virus) was 1.13 nM and the solubility (physchem [4]; pH 1.2, simulated gastric fluid, JP-1 solution, read-out: powder solubility, JP-1 solution) was 7.1 µg/mL (≈ 14.7 µM). The solubility (physchem [4]; pH 6.8, aqueous buffer, JP-2 solution, read-out: powder solubility, JP-2 solution) was 4.4 µg/mL (≈ 9.1 µM), the solubility (physchem [4]; pH 6.8, fassgf or other biorelevant, 20 mmol/L TCA/JP-2 solution) was 16.1 µg/mL (≈ 33.3 µM) and the “% compound remaining after microsomal incubation” value [5] was 90.1%.
